{
  "source": "patent US12435060B2",
  "about": "“Acylamino bridged heterocyclic compound, and composition and application thereof” (BEIJING SCITECH-MQ PHARMACEUTICALS LIMITED, priority 2019, dated 2025)",
  "data": [
    {"system": "HT29 cells", "assay": "Inhibition of cell necrosis (CCK8 method), induced programmed necrosis of HT29 cells", "type": "cell-based", "settings": "Homo sapiens, HT-29; rescue from necrosis induced by TNF-α 20 ng/mL, AT-406 1 μM, Z-VAD-FMK 20 μM; 16-20 hours; CCK-8, OD 450 nm", "in_short": "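Rescue from programmed necrosis was scored by CCK-8 absorbance at 450 nm after 16-20 h of TNF-α (20 ng/mL), AT-406 (1 μM) and Z-VAD-FMK (20 μM) at 37 °C, 5% CO2. HT29 cells had received compound 30 min earlier across nine 4-fold dilutions (top 25000 nM final). IC50 came from % inhibition relative to uninduced and induced-only wells.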", "units": {"IC50": "nM"}, "values": [
      {"molecule": "O=C(Nc1cc(-c2cc(OCC3CCOCC3)ccc2Cl)c(Cl)cn1)c1nnc(CC2CCCCC2)[nH]1", "note": "[Example 425, N-(5-chloro-4-(2-chloro-5-((tetrahydro-2H-pyran-4-yl)methoxy)phenyl)pyridin-2-yl)-5-(cyclohexylmethyl)-4H-1,2,4-triazole-3-carboxamide]", "IC50": "100 to 1000"},
      {"molecule": "Cc1ccc(OCCN2CCCCC2)cc1-c1ccnc(NC(=O)c2nnc(Cc3cc(F)cc(F)c3)[nH]2)c1", "note": "[Example 232, 5-(3,5-difluorobenzyl)-N-(4-(2-methyl-5-(2-(piperidin-1-yl)ethoxy)phenyl)pyridin-2-yl)-4H-1,2,4-triazole-3-carboxamide]", "IC50": "100 to 1000"},
      {"molecule": "CCC(O)(CC)CCCOc1ccc(Cl)c(-c2ccnc(NC(=O)c3nnc(Cc4ccccc4F)[nH]3)c2)c1", "note": "[Example 360, N-(4-(2-chloro-5-((4-ethyl-4-hydroxyhexyl)oxy)phenyl)pyridin-2-yl)-5-(2-fluorobenzyl)-4H-1,2,4-triazole-3-carboxamide]", "IC50": "≤ 100"},
      {"molecule": "Cc1ccc(S(=O)(=O)CCCC(C)(C)O)cc1-c1ccnc(NC(=O)c2nnc(Cc3ccccc3)[nH]2)c1", "note": "[Example 474, 5-benzyl-N-(4-(5-((4-hydroxy-4-methylpentyl)sulfonyl)-2-methylphenyl)pyridin-2-yl)-4H-1,2,4-triazole-3-carboxamide]", "IC50": "100 to 1000"},
      {"molecule": "Cc1cnc(NC(=O)c2nnc(CC3CCCCC3)[nH]2)cc1-c1cc(OCC2CCOCC2)ccc1F", "note": "[Example 332, 5-(cyclohexylmethyl)-N-(4-(2-fluoro-5-((tetrahydro-2H-pyran-4-yl)methoxy)phenyl)-5-methylpyridin-2-yl)-4H-1,2,4-triazole-3-carboxamide]", "IC50": "1000 to 10000"},
      {"molecule": "Cc1ccc(OCCCC(C)(C)O)cc1-c1ccnc(NC(=O)c2nnc(Cc3cc(F)c(F)c(F)c3)[nH]2)c1", "note": "[Example 217, 5-(3,4,5-trifluorobenzyl)-N-(4-(5-((4-hydroxy-4-methylpentyl)oxy)-2-methylphenyl)pyridin-2-yl)-4H-1,2,4-triazole-3-carboxamide]", "IC50": "100 to 1000"},
      {"molecule": "Cc1ccc(OCCCC(C)(C)O)cc1-c1cc(NC(=O)c2nnc(CC3CCCCC3)[nH]2)ncc1Cl", "note": "[Example 239, N-(5-chloro-4-(5-((4-hydroxy-4-methylpentyl)oxy)-2-methylphenyl)pyridin-2-yl)-5-(cyclohexylmethyl)-4H-1,2,4-triazole-3-carboxamide]", "IC50": "≤ 100"},
      {"molecule": "O=C(Nc1cc(-c2cccc3c2OCO3)ccn1)c1nnc(Cc2ccccc2)[nH]1", "note": "[Example 41, N-(4-(benzo[d][1,3]dioxol-4-yl)pyridin-2-yl)-5-benzyl-4H-1,2,4-triazole-3-carboxamide]", "IC50": "> 10000"},
      {"molecule": "Cc1ccc(OCCOC(C)(C)C)cc1-c1ccnc(NC(=O)c2nnc(CC3CCCC3)[nH]2)c1", "note": "[Example 75, N-(4-(5-(2-(tert-butoxy)ethoxy)-2-methylphenyl)pyridin-2-yl)-5-(cyclopentylmethyl)-4H-1,2,4-triazole-3-carboxamide]", "IC50": "≤ 100"},
      {"molecule": "O=C(Nc1cc(-c2cc(OCC3CCOCC3)ccc2C(F)(F)F)ncn1)c1nnc(CC2CCCC2)[nH]1", "note": "[Example 456, 5-(cyclopentylmethyl)-N-(6-(5-((tetrahydro-2H-pyran-4-yl)methoxy)-2-(trifluoromethyl)phenyl)pyrimidin-4-yl)-4H-1,2,4-triazole-3-carboxamide]", "IC50": "≤ 100"},
      {"molecule": "O=C(Nc1cc(-c2cc(OCC3CCOCC3)ccc2C(F)(F)F)ccn1)c1nnc(Cc2ccccc2F)[nH]1", "note": "[Example 300, 5-(2-fluorobenzyl)-N-(4-(5-((tetrahydro-2H-pyran-4-yl)methoxy)-2-(trifluoromethyl)phenyl)pyridin-2-yl)-4H-1,2,4-triazole-3-carboxamide]", "IC50": "≤ 100"},
      {"molecule": "COc1ccc(Cl)cc1-c1ccnc(NC(=O)c2nnc(Cc3ccccc3)[nH]2)c1", "note": "[Example 15, 5-benzyl-N-(4-(5-chloro-2-methoxyphenyl)pyridin-2-yl)-4H-1,2,4-triazole-3-carboxamide]", "IC50": "1000 to 10000"},
      {"molecule": "O=C(Nc1cc(-c2cc(OCCCCCO)ccc2Cl)ccn1)c1nnc(CC2CCCCC2)[nH]1", "note": "[Example 378, N-(4-(2-chloro-5-((5-hydroxypentyl)oxy)phenyl)pyridin-2-yl)-5-(cyclohexylmethyl)-4H-1,2,4-triazole-3-carboxamide]", "IC50": "≤ 100"},
      {"molecule": "Cc1ccc(OCCCS(C)(=O)=O)cc1-c1ccnc(NC(=O)c2nnc(Cc3ccccc3)[nH]2)c1", "note": "[Example 73, 5-benzyl-N-(4-(2-methyl-5-(3-(methylsulfonyl)propoxy)phenyl)pyridin-2-yl)-4H-1,2,4-triazole-3-carboxamide]", "IC50": "≤ 100"},
      {"molecule": "Cc1ccc(OCCCC(C)(C)O)cc1-c1cc(NC(=O)c2nnc(Cc3ccccc3F)[nH]2)ncc1F", "note": "[Example 492, N-(5-fluoro-4-(5-((4-hydroxy-4-methylpentyl)oxy)-2-methylphenyl)pyridin-2-yl)-5-(2-fluorobenzyl)-4H-1,2,4-triazole-3-carboxamide]", "IC50": "≤ 100"},
      {"molecule": "COCCCOc1ccc(C(F)(F)F)c(-c2ccnc(NC(=O)c3nnc(CC4CCCC4)[nH]3)c2)c1", "note": "[Example 297, 5-(cyclopentylmethyl)-N-(4-(5-(3-methoxypropoxy)-2-(trifluoromethyl)phenyl)pyridin-2-yl)-4H-1,2,4-triazole-3-carboxamide]", "IC50": "≤ 100"},
      {"molecule": "Cc1ccc(OCCCC2(O)CCCCC2)cc1-c1ccnc(NC(=O)c2nnc(Cc3ccccc3)[nH]2)c1", "note": "[Example 164, 5-benzyl-N-(4-(5-(3-(1-hydroxycyclohexyl)propoxy)-2-methylphenyl)pyridin-2-yl)-4H-1,2,4-triazole-3-carboxamide]", "IC50": "≤ 100"},
      {"molecule": "Cc1ccc(OCC2CCCO2)cc1-c1ccnc(NC(=O)c2nnc(Cc3ccccc3)[nH]2)c1", "note": "(centres unmarked) [Example 121, 5-benzyl-N-(4-(2-methyl-5-((tetrahydrofuran-2-yl)methoxy)phenyl)pyridin-2-yl)-4H-1,2,4-triazole-3-carboxamide]", "IC50": "≤ 100"},
      {"molecule": "Cc1ccc(OC2CC2)cc1-c1ccnc(NC(=O)c2nnc(Cc3ccccc3)[nH]2)c1", "note": "[Example 155, 5-benzyl-N-(4-(5-cyclopropoxy-2-methylphenyl)pyridin-2-yl)-4H-1,2,4-triazole-3-carboxamide]", "IC50": "100 to 1000"},
      {"molecule": "CC(C)(O)CCCOc1ccc(Cl)c(-c2ccnc(NC(=O)c3nnc(Cc4cc(C5CC5)ccc4F)[nH]3)c2)c1", "note": "[Example 503, N-(4-(2-chloro-5-((4-hydroxy-4-methylpentyl)oxy)phenyl)pyridin-2-yl)-5-(5-cyclopropyl-2-fluorobenzyl)-4H-1,2,4-triazole-3-carboxamide]", "IC50": "1000 to 10000"},
      {"molecule": "CC(C)(O)CCCCOc1ccc(Cl)c(-c2ccnc(NC(=O)c3nnc(Cc4ccccc4F)[nH]3)c2)c1", "note": "[Example 368, 5-(2-fluorobenzyl)-N-(4-(2-chloro-5-((5-hydroxyl-5-methylhexyl)oxy)phenyl)pyridin-2-yl)-4H-1,2,4-triazole-3-carboxamide]", "IC50": "≤ 100"},
      {"molecule": "O=C(Nc1cc(-c2cc(OCCC3CCOCC3)ccc2C(F)(F)F)ccn1)c1nnc(CC2CCCCC2)[nH]1", "note": "[Example 310, 5-(cyclohexylmethyl)-N-(4-(5-(2-(tetrahydro-2H-pyran-4-yl)ethoxy)-2-(trifluoromethyl)phenyl)pyridin-2-yl)-4H-1,2,4-triazole-3-carboxamide]", "IC50": "≤ 100"},
      {"molecule": "CC(C)(C)OCCOc1ccc(C(F)(F)F)c(-c2ccnc(NC(=O)c3nnc(Cc4ccccc4)[nH]3)c2)c1", "note": "[Example 291, 5-benzyl-N-(4-(5-(2-(tert-butoxy)ethoxy)-2-(trifluoromethyl)phenyl)pyridin-2-yl)-4H-1,2,4-triazole-3-carboxamide]", "IC50": "≤ 100"}
    ]}
  ]
}
